“Also recorded” adds a separate entry of the source.
Columns and labels:
[1] = tested on: primary microglia; assay: ROS / superoxide generation in primary microglia; type: cell-based, mouse
Description: Superoxide concentrations were calculated by measuring the degree ofcytochrome c reduction using a VersaMax microplate reader (Babior et al., 1973). Microglia were cultured in a 96 well plate at a concentration of 1.0×10^5 cells/well, and the microglia were activated by a 10 μM ATP solution containing 2-PF and cytochrome c, or a solution in which Sup is mixed with cytochalasin B (5 μM; #C66762; Sigma Aldrich). The concentration of ROS was measured through a change in light absorption every minute for 25 minutes at 550 nm.
ROS levels were measured using 2′,7′-dichlorodihydrofluorescein diacetate (DCF-DA, #D6883; Sigma Aldrich) by a previously described method with minor modifications (Bae et al., 2001). More specifically, primary microglia were seeded in 24-well plates (5.0×10^5 cells/well) for 24 hours, and then treated with 10 μM DCF-DA at 37° C. for 30 minutes. One plate was treated with 2-PF, and the other one was not. The cells in each well were measured using a flow cytometer (FACS Accuri™ C6; BD Biosciences). MFI was measured as described above.

[2] = tested on: Olfr111; assay: Luciferase assay in Hana3A cells transfected with Olfr111; type: cell-based, mouse; details: Hana3A cells
Description: A Dual-Glo luciferase assay system (#E2940; Promega) was used for OR ligand screening. More specifically, Hana3A cells were seeded in white polystyrene 96-well plates (#353296; BD Biosciences) one day before transfection. pCRELuc (1 μg; #219076; Agilent Technologies), pRL-SV40 (1 μg; #E2231; Promega), RTP1S (1 μg), and OR (6 μg; or Mock) vectors were transfected for 24 hours in each plate. Analysis was performed using Lipofectamine 2000 (#11668-019; Thermo Fisher Scientific) according to the manufacturer's protocols. Transfected cells were stimulated at 37° C. for 4 hours with various concentrations of diluted odorants in a CD293 medium (#11913-019; Thermo Fisher Scientific). The activity of luciferase was normalized to that of Renilla luciferase. Luminescence was measured using a SpectraMax L microplate reader (Molecular Devices).

[3] = tested on: primary microglia; assay: Phagocytosis of FITC-dextran by primary microglia (FACS); type: cell-based, mouse; details: 100, 300 and 500 μM
Description: Primary microglia were seeded in 24-well plates (5×10^5 cells/well) and incubated for 24 hours. Cells were preincubated with 2-PF or Sup for 30 minutes, incubated with FITC-dextran (1 mg/ml, 20 mg/ml in PBS; #FD70S; Sigma Aldrich) in serum-free DMEM at 37° C. for […], and washed with PBS at 4° C. The cells were detached with 0.25% trypsin (#15090-046; Thermo Fisher Scientific) in PBS, and the detached cells were analyzed with FACS Accuri™ C6 (BD Biosciences). Mean fluorescence intensity (MFI) was calculated by integrating fluorescence histograms under each condition using the software. A phagocytosis index was defined as MFI, normalized against an untreated group.

[4] = molecular target: T1, Olfr110 F104W mutation (Mus musculus, UniProt A2RT31, F104W); assay: Luciferase assay with site-directed Olfr110 mutants; type: cell-based; details: 2-PF treatment
T1 construct: Full-length odorant receptor genes from mouse and human genomic DNAs were amplified using appropriate primers; Lucy (N); Flag (N); Rho (N); expressed in transfected cells; host or cells: Hana3A cells
T1 sequence (A2RT31 1-317 F104W): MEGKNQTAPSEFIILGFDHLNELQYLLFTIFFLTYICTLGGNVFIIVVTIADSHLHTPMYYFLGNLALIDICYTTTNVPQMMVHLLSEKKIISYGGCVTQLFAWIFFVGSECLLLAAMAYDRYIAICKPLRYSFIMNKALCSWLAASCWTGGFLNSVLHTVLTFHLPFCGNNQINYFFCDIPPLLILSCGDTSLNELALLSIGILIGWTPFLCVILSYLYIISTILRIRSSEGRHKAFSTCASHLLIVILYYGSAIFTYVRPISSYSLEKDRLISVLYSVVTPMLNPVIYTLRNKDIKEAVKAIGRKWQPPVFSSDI
From the text: Specific mutant vectors of the Olfr110 structure were generated using PfuUltra High-Fidelity DNA polymerase (#600380; Agilent Technologies). All mutant vectors (F102W; F104W; Y252F; Y259F; F102W/F104W; Y252F/Y259F; F102W/Y252F/Y259F; F104W/Y252F/Y259F; F102W/F104W/Y252F/Y259F) were sequenced in forward and reverse directions (Macrogen).

[5] = tested on: microglia; assay: Ex vivo phagocytosis of microglia in brain slices (time-lapse confocal imaging); type: cell-based, mouse; details: brain slices of CX3CR1 GFP/+ mice
Description: In this experiment, to examine the phagocytotic action of microglia, the brain of a 9-week-old male CX3CR1^GFP/+ mouse was sliced to a thickness of 150 μm using a vibratome (Leica VT1200), and stored in a ice-cooled artificial cerebrospinal fluid (aCSF: 120 mM NaCl, 25 mM NaHCO3, 1.25 mM NaH2PO4, 5 mM KCl, 1 mM CaCl2, 1 mM MgSO4, […], pH7.4). Afterwards, the sliced brain was incubated to remove cell debris. Oxygen-treated aCSF was pretreated in a perfusion chamber at 37° C. for 2 hours. Subsequently, before incubation, the sliced brain was incubated with 500 μl of aCSF containing 9.10×10^7 microspheres (360/407 […]; #17458; Polysciences), and covered with a customized nylon grid. Time lapse videos were recorded every minute for 92 minutes using a confocal microscope. The number of phagocytosing microglia was counted from the images.

[6] = tested on: Hana3A cells expressing Olfr110; assay: Boyden chamber chemotaxis assay, Hana3A cells expressing Olfr110; type: cell-based; details: 2-PF 10, 100 and 1000 μM
Description: Chemotaxis was measured using a multi-well Boyden chamber. More specifically, a polycarbonate filter (8 μm pore; #101-8; Neuroprobe) was coated with […] fibronectin (Sigma-Aldrich) in PBS for 2 hours, and the coated filter was installed in a Boyden chamber. In addition, the bottom side of a plate was filled with serum-free DMEM containing 2-PF or a culture supernatant. Subsequently, microglia or Hana3A cells were transfected with an OR construct, and then suspended in serum-free DMEM. The microglia were kept at 37° C. for 4 hours, and the Hana3A cells for 8 hours. Cells that migrated to the bottom surface were fixed with 4% PFA, and stained with hematoxylin for 10 minutes. The migrated cells were counted under a light microscope in five randomly selected fixed […] fields (200×) using a scored eyepiece. A chemotaxis index was defined as the migrated cell number normalized against the untreated group.

[7] = tested on: primary microglia; assay: cAMP ELISA in primary microglia; type: cell-based, mouse; details: 2-PF 0, 100, 500 μM
Description: Primary microglia were seeded in 48-well plates (2×10^5 cells/well) and treated with 30 μM forskolin (#F3917, Sigma Aldrich) or 2-PF (10, 100, 500 μM) for 30 minutes. To confirm the effect of an inhibitor, 1 mM of S Q22536 (#17318-31-9; Calbiochem) was pretreated first for 30 minutes. The cells were lysed in 0.1 M of HCl with 1% Triton X 100 for 10 minutes, the lysate was centrifuged at 600×g for 2 minutes. The resulting supernatant was directly used for cAMP analysis with a cAMP ELISA kit (Enzo Life Science) according to the manufacturer's protocol. An optical density at 405 nm was measured using a VersaMax microplate reader (Molecular Devices).

With `CCCCCc1ccco1` [2-PF, 2-pentylfuran] the “ROS generation on top of Sup MOI 5” value ([1]; 500 μM 2-PF with Sup MOI 5) was “further increased”, the ROS secretion ([1]; 100, 300 and 500 μM) was “significantly increased in a concentration-dependent manner” and the “reactivity with Olfr111 (relative luciferase activity)” value [2] was “selective ligands; also recorded: showed reactivity”. The phagocytosis [3] was “significantly increased in a concentration-dependent manner”, the “luciferase activity of Olfr110 F104W mutant” value [4] was “completely lost” and the “activity of phagocytosis of microglia ex vivo” value [5] was “increased”. For the same molecule, the “mobility of Olfr110 cells (chemotaxis assay)” value [6] was “increased in mobility in a concentration-dependent manner” and the cAMP concentration [7] was “increased by 2-PF treatment in a concentration dependent manner”.

— patent US12265087B2, “Olfactory receptor as microglia marker and use thereof” (DAEGU GYEONGBUK INSTITUTE OF SCIENCE AND TECHNOLOGY, priority 2019, dated 2025)
